# Source: US20260078110A1, “SESTERTERPENOID COMPOUNDS AND EXTRACT L01 OF LEUCOSCEPTRUM CANUM, AND USE THEREOF IN TREATMENT OF PSORIASIS” (Kunming Institute of Botany, CAS, priority 2023, published 2026)
# Assays:
# [1] = test system: pro-inflammatory cytokine IFN-γ secretion by mouse T cells stimulated by CD3/CD28 monoclonal antibodies; assay: Inhibition of IFN-γ secretion by mouse T cells stimulated by CD3/CD28 monoclonal antibodies (ELISA); assay type: cell-based; details: T-cell, 48 h, C57BL/6 mouse T cells, CD3/CD28 mAb stimulation; for inhibition at 20 µM: read-out: Inhibitory rate (%, 20 μM)
# Description: CD3, CD28 monoclonal antibodies, and kit for IFN-γ detection were purchased from BD Bioscience, Cell Counting Kit-8 (CCK-8) was purchased from MeilunBio®, and RPMI-1640 medium and fetal bovine serum were purchased from Biological Industries.
# Preparation of samples to be tested: the 12 compounds of Example 1 were dissolved in DMSO, respectively to prepare 20 mM stock solutions.
# Splenocytes were aseptically isolated from 6-8 week old female C57BL/6 mice, and T cells were isolated using a nylon wool column method. The T cells were then inoculated (4×10^5 cells/well) in a 96-well plate (which was coated with 5 μg/mL of CD3 monoclonal antibody). At the same time, a prepared compound solution of 40 μM, 20 μM, 10 μM, 5 μM, 2.5 μM, or 1.25 μM along with a 2 μg/mL solution of CD28 monoclonal antibody were added into each group, respectively, which were cultured in a 37° C./5% CO2 incubator. After 48 h, the supernatant of the cells was collected and the IFN-γ secretion in the supernatant was detected by an Enzyme-Linked Immuno-Sorbent Assay (ELISA); 10 μL of CCK-8 solution was added into each well, and OD450 was measured after incubation at 37° C. for 4 h to evaluate cell proliferation. […] The inhibitory activity of the compounds on IFN-γ was calculated, and the half-maximal inhibitory concentration (IC50) was analyzed using GraphPadPrism software.
# [2] = test system: imiquimod-induced psoriasis mice; assay: In vivo anti-psoriasis activity test on sesterterpenoid compound 6 (imiquimod-induced psoriasis mouse model); details: 25 and 50 mg/kg intraperitoneal injection, day 1 to 6
# Description: Establishment and pharmacodynamic study of a mouse model of imiquimod-induced psoriasis: the mice were randomly divided into a control group, a model group, a methotrexate (MTX) treatment (1 mg/kg) group, and Leucosceptrum canum sesterterpenoid treatment (50 mg/kg, 150 mg/kg, 450 mg/kg) groups, with 6 mice in each group. The mice were depilated on their backs before the experiment, and 62.5 mg of […] imiquimod cream was evenly applied on the backs of mice while an equivalent amount of Vaseline was applied on the backs of mice in the normal control group from the 1st day, the application was performed once a day for 6 d. From the 1st day 1 to the 6th day, each treatment group was given the drug by gavage. During the experiment, the mice were weighed and scored for the Psoriasis Area and Severity Index (PASI) according to the following criteria: 0 points, normal skin without erythema and scales; 1 point, mild erythema, a few fine scales, and the skin at the lesion being slightly higher than normal skin; 2 points, moderate red plaques, the surface of the lesions being covered with scales, and the lesions being flaky or moderately raised; 3 points, severe dark red plaques, almost all the lesions being covered with thick scales or obvious lesions; 4 points, extremely severe and dark red plaques, all lesions being covered with highly thick layered scales, and the thickening and protrusion of the lesions being extremely obvious. After the experiment, the back skin of the mice was taken to make pathological sections. The levels of pro-inflammatory cytokines IFN-γ and IL-17A in mouse serum were detected by ELISA.
# A method for establishing the imiquimod-induced psoriasis mouse model was the same as that in Example 4. The mice were randomly divided into a control group, a model group, a methotrexate (MTX) treatment group (1 mg/kg), and compound 6 treatment groups (25 and 50 mg/kg), with 6 mice in each group. From the 1st day to the 6th day, drugs were given to each treatment group by intraperitoneal injection. During the experiment, the mice were weighed and scored for PASI. After the experiment, the back skin of the mice was taken to make pathological sections. The levels of pro-inflammatory cytokines IFN-γ and IL-17A in mouse serum were detected by ELISA.
Structure (SMILES),inhibition at 20 µM [1],further results
CC(C)=C[C@]1(O)C(=O)[C@@H](C)[C@@H]2CC[C@H](C)[C@H]2[C@]1(O)C(=O)[C@H](C)CC[C@@H]1OC(=O)C=C1C [Compound 1],32.1 ± 5.46%,–
CC(C)=C[C@]1(O)C(=O)[C@@H](C)[C@@H]2CC[C@H](C)[C@H]2[C@@]1(O)C(=O)[C@H](C)CC[C@@H]1OC(=O)C=C1C [Compound 2],51.3 ± 7.1%,–
CC(C)=C[C@]1(O)C(=O)[C@@H](C)[C@@H]2CC[C@H](C)[C@H]2[C@@]1(O)C(=O)[C@H](C)CCc1occc1C [Compound 3],30.5 ± 6.55%,–
CC[C@@H](C)C(=O)[C@@]1(O)[C@H]2[C@@H](CC[C@@H]2C)[C@H](C)[C@]2(O)OCC(C)=C[C@@]21O [Compound 4],26.7 ± 5.85%,–
CC1=C[C@@]2(O)[C@@](O)(OC1)[C@@H](C)[C@@H]1CC[C@H](C)[C@H]1[C@]2(O)C(=O)[C@H](C)CCO [Compound 5],10.7 ± 2.74%,–
CC1=C[C@@]2(O)[C@@](O)(OC1)[C@@H](C)[C@@H]1CC[C@H](C)[C@H]1[C@]2(O)C(=O)[C@H](C)CCc1occc1C [Compound 6],66.8 ± 3.02%,"IC50 [1]: 5.74 µM; level of IFN-γ in the serum of psoriasis mice (FIG. 10A-10B, ELISA) [2]: significantly reduces; level of IL-17A in the serum of psoriasis mice (FIG. 10A-10B, ELISA) [2]: significantly reduces; pathological damage of the skin tissue of psoriasis mice (FIG. 9, HE staining) [2]: significantly inhibits; symptoms of psoriasis in mice (FIG. 8) [2]: significantly improves"
CC1=C[C@@]2(O)[C@@](O)(OC1)[C@@H](C)[C@@H]1CC[C@H](C)[C@H]1[C@]2(O)C(=O)[C@H](C)CC(=O)c1occc1C [Compound 7],36.2 ± 8.27%,–
CC1=C[C@@]2(O)[C@@](O)(OC1)[C@@H](C)[C@@H]1CC[C@H](C)[C@H]1[C@]2(O)C(=O)[C@H](C)CCC1=C(C)CC(=O)O1 [Compound 8],43.1 ± 7.35%,–
COC1(CC[C@@H](C)C(=O)[C@@]2(O)[C@H]3[C@@H](CC[C@@H]3C)[C@H](C)[C@]3(O)OCC(C)=C[C@@]32O)OC(=O)C=C1C (some centres unmarked) [Compound 9],39.6 ± 7.93%,–
COC1C=C(C)C(CC[C@@H](C)C(=O)[C@@]2(O)[C@H]3[C@@H](CC[C@@H]3C)[C@H](C)[C@]3(O)OCC(C)=C[C@@]32O)(OC)O1 (some centres unmarked) [Compound 10],10.4 ± 3.02%,–
CC1=C[C@@]2(O)[C@@](O)(OC1)[C@@H](C)[C@@H]1CC[C@H](C)[C@H]1[C@@]2(O)C(=O)[C@H](C)C[C@H]1C(=O)C(C)=C[C@@H]1O [Compound 11],23.4 ± 1.24%,–
CC1=C[C@@]2(O)[C@@](O)(OC1)[C@@H](C)[C@@H]1CC[C@H](C)[C@H]1[C@@]2(O)C(=O)[C@@H](C)C[C@H]1C(=O)C(C)=C[C@@H]1O [Compound 12],33.8 ± 2.27%,–
